Paper PMC9674596, “Origin of acetylcholine antagonism in ELIC, a bacterial pentameric ligand-gated ion channel” (Communications Biology, 2022)
“Also recorded” adds a separate entry of the source.

Key:
[1] = target: T1, ELIC A75D/F133W (Dickeya chrysanthemi, UniProt P0C7B7, A75D/F133W/INS163G); assay: Two-electrode voltage clamp, A75D/F133W double mutant ELIC expressed in Xenopus laevis oocytes; format: cell-based, Erwinia chrysanthemi
T1 construct: expressed in transfected cells; host or cells: Xenopus laevis oocytes injected with cRNA; DNA construct synthesised by Twist Bioscience
Experimental: (§1) Stage V-VI Xenopus laevis oocytes were isolated[72] and deflocculated enzymatically in ND96 buffer without Ca^2+ (96 mM NaCl, 2 mM KCl, 1 mM MgCl2, 2 mM pyruvate, 5 mM HEPES, pH 7.4), but supplemented with 1 mg/mL collagenase B and 1 mg/mL trypsin inhibitor, for 2 h at room temperature under constant stirring. The deflocculation buffer was then gradually removed by washing the oocytes in ND96 buffer (96 mM NaCl, 2 mM KCl, 1 mM MgCl2, 1 mM CaCl2, 2 mM pyruvate, 5 mM HEPES, pH 7.4) for several iterations. The oocytes were then allowed to stir for an additional hour at room temperature under constant stirring with the buffer being periodically replaced until clear. To obtain optimal receptor expression, individually selected and healthy oocytes were injected with 0.2 ng cRNA for wild-type ELIC and 5 ng cRNA for mutants. Subsequently, oocytes were incubated for one day at 16 °C in ND96^+ buffer (96 mM NaCl, 2 mM KCl, 1 mM MgCl2, 1 mM CaCl2, 2 mM pyruvate, and 5 mM HEPES at pH 7.6). After expression, injected oocytes were placed in a RC-1Z oocyte chamber (Harvard Apparatus; Hamden, CT) containing buffer (pH 7.4) composed of 150 mM NaCl, 0.5 mM BaCl2, 10 mM HEPES, and 1 mM dithiothreitol or 1 µM atropine if cysteamine, or ACh, was used in the experiment, respectively. The presence of the reducing agent, dithiothreitol, ensures that the sulfhydryl group of cysteamine remains reduced.
(§2) Once in the oocyte chamber, whole-cell currents were recorded using a two-electrode voltage-clamp apparatus (OC-725C oocyte clamp; Harvard Apparatus), with a buffer flow rate of 5–10 mL min^−1. Currents in response to various additions of cysteamine and/or ACh, were measured with the transmembrane voltage clamped at −60 mV. Dose response curves for each wild-type and mutant ELIC were acquired from at least five oocytes in two different batches.
(§3) For identifying the half maximal effective concentration (EC50) and apparent Hill coefficient (nH) of cysteamine, dose response curves were created by taking the magnitude of each cysteamine-activated peak current (I) and normalizing this value to the maximal peak current in the presence of excess agonist (Imax). The log (base 10) cysteamine concentration in molar was then plotted on the x-axis against the fractional response (I/Imax) on the y-axis. The data was fitted using nonlinear regression with a variable slope sigmoidal dose response (Eq. 1, below) in GraphPad Prism (v.8.0.0).1 y=1/1+10^nH^LogEC50−X
(§4) Individual EC50 and Hill coefficients were averaged for each oocyte to derive a mean ± standard deviation. For identifying a half maximal inhibitory concentration (IC50) and Hill coefficient of ACh, a concentration of cysteamine corresponding to its EC50 was used in the presence of increasing concentrations of ACh. Peak currents elicited from cysteamine with ACh (I) were normalized to the initial cysteamine peak current in the absence of ACh (Io). The log (base 10) ACh concentration was then plotted on the x-axis against the fractional response (I/Io) on the y-axis. Subsequent steps were the same as above for deriving a cysteamine EC50 and Hill coefficient. The individual IC50 and Hill coefficients were averaged for each oocyte to derive a mean ± one standard deviation. Lastly, to identify four normalized response values, cysteamine at the 10% maximal effective concentration (EC10), 20% maximal effective concentration (EC20), EC50 and 90% maximal effective concentration (EC90), was applied in the presence and absence of 25 mM ACh. The cysteamine-activated peak current with 25 mM ACh, was normalized to the cysteamine-activated peak current without ACh.

[2] = test system: ELIC Y38W; assay: Two-electrode voltage clamp, Y38W mutant ELIC expressed in Xenopus laevis oocytes; format: cell-based, Erwinia chrysanthemi; settings: Y38W
Experimental: as §1, §2, §3, §4

[3] = target: ELIC Y38W (Dickeya chrysanthemi, UniProt P0C7B7, Y38W); assay: as above; format: cell-based, Erwinia chrysanthemi; settings: Y38W
Experimental: as §1, §2, §3, §4

[4] = target: ELIC F133W (Dickeya chrysanthemi, UniProt P0C7B7, F133W); assay: cell-based; format: cell-based, Erwinia chrysanthemi; settings: F133W
Experimental: as §1, §2, §3, §4

[5] = target: T2, ELIC L240A (L9′A) (Dickeya chrysanthemi, UniProt P0C7B7, L239A); assay: Two-electrode voltage clamp, L240A (L9′A) mutant ELIC expressed in Xenopus laevis oocytes; format: cell-based, Erwinia chrysanthemi
T2 construct: expressed in transfected cells; host or cells: Xenopus laevis oocytes injected with cRNA from ELIC-pTLN
Experimental: as §1, §2, §3
(§5) Individual EC50 and Hill coefficients were averaged for each oocyte to derive a mean ± standard deviation. For identifying a half maximal inhibitory concentration (IC50) and Hill coefficient of ACh, a concentration of cysteamine corresponding to its EC50 was used in the presence of increasing concentrations of ACh. […]

[6] = target: T3, ELIC A75D (Dickeya chrysanthemi, UniProt P0C7B7, A75D/INS163G); assay: Two-electrode voltage clamp, A75D mutant ELIC expressed in Xenopus laevis oocytes; format: cell-based, Erwinia chrysanthemi; settings: A75D
T3 construct: expressed in transfected cells; host or cells: Xenopus laevis oocytes injected with cRNA from ELIC-pTLN

[7] = target: T4, wild-type ELIC (Dickeya chrysanthemi, UniProt P0C7B7, INS163G); settings: cited from earlier work
T4 construct: expressed in transfected cells; host or cells: Xenopus laevis oocytes injected with cRNA from ELIC-pTLN

[8] = target: T5, ELIC I79Y (Dickeya chrysanthemi, UniProt P0C7B7, I79Y/INS163G); assay: Two-electrode voltage clamp, I79Y mutant ELIC expressed in Xenopus laevis oocytes; format: cell-based, Erwinia chrysanthemi
T5 construct: expressed in transfected cells; host or cells: Xenopus laevis oocytes injected with cRNA from ELIC-pTLN
Experimental: as §1, §2, §3
as §4, with “The cysteamine-activated peak current with 25 mM ACh, was normalized to the cysteamine-activated peak current without ACh.” left out

[9] = target: T6, ELIC L240A (L9′A) + A75D/F133W (Dickeya chrysanthemi, UniProt P0C7B7, A75D/F133W/L239A); assay: Two-electrode voltage clamp, L9′A + A75D/F133W triple mutant ELIC expressed in Xenopus laevis oocytes; format: cell-based, Erwinia chrysanthemi
T6 construct: expressed in transfected cells; host or cells: Xenopus laevis oocytes injected with cRNA
Experimental: as §1, §2, §3, §5

[10] = cysteamine as agonist, read-out: Activation EC50
[11] = read-out: Cysteamine concentration corresponding to EC90
[12] = ACh 0.5 mM to 50 mM, followed by 5 mM cysteamine

For NCCS [cysteamine], the “Cysteamine concentration corresponding to EC10” value [1] was 3.9 mM, the “Cysteamine concentration corresponding to EC20” value [1] was 4.8 mM and the “Activation by amine (whole-cell response)” value ([1]; 25 mM amine, cysteamine at its EC50) was “still activated”. For the same compound, the “Activation Hill coefficient” value ([1]; cysteamine as agonist) was 3.8 ± 0.3, the EC50 [1, 10] was 6.9 ± 0.7 mM and the EC90 [1, 11] was 12.3 mM. The “Change in EC50 for cysteamine compared to wild-type” value [2] was “unchanged”, the “Cysteamine concentration corresponding to EC10” value [3] was 0.1 mM and the “Cysteamine concentration corresponding to EC20” value [3] was 0.2 mM. The “Activation Hill coefficient” value ([3]; cysteamine as agonist) was 1.4 ± 0.2, the EC50 [3, 10] was 0.5 ± 0.1 mM and the “Peak current on application of ligand alone” value (shortened to “Peak current on application”) [3, 12] was “robust peak current”. The EC90 [3, 11] was 2.6 mM, the “Cysteamine concentration corresponding to EC10” value [4] was 1.6 mM and the “Cysteamine concentration corresponding to EC20” value [4] was 2.3 mM. The “Increase in EC50 for cysteamine relative to wild-type” value [4] was 7 fold, the “Activation Hill coefficient” value ([4]; cysteamine as agonist) was 2.3 ± 0.3 and the EC50 [4, 10] was 4.3 ± 0.6 mM. The “Peak current on application” value [4, 12] was “robust peak current”, the EC90 [4, 11] was 11.3 mM and the “Current on application of ligand alone” value ([5]; L9′A, 30 s applications of ACh 0.5 to 50 mM, then 5 mM cysteamine) was “robust peak current; also recorded: robust activation”. For the same compound, the “Activation Hill coefficient” value ([5]; L240A (L9′A), cysteamine as agonist) was 2.8 ± 0.1, the EC50 ([5]; L240A (L9′A), cysteamine as agonist, read-out: Activation EC50) was 0.15 ± 0.01 mM and the “Cysteamine concentration corresponding to EC10” value [6] was 0.6 mM. The “Cysteamine concentration corresponding to EC20” value [6] was 0.9 mM, the “Increase in EC50 for cysteamine relative to wild-type” value [6] was 3 fold and the “Activation Hill coefficient” value ([6]; cysteamine as agonist) was 2.3 ± 0.5. For the same compound, the EC50 [6, 10] was 1.6 ± 0.4 mM, the “Peak current on application” value [6, 12] was “robust peak current” and the EC90 [6, 11] was 4.2 mM. The “Action on ELIC” value [7] was “agonists”, the “Increase in EC50 for cysteamine relative to wild-type” value [8] was 24 fold and the “Peak current on application” value [8, 12] was “robust peak current”. The “Activation Hill coefficient” value ([8]; estimate, cysteamine application for 30 s, 1.5 mM to 100 mM) was 2.2 ± 0.3, the EC50 ([8]; estimate, cysteamine application for 30 s, 1.5 mM to 100 mM, read-out: Activation EC50) was 14 ± 1 mM and the “Current on application of ligand alone” value ([9]; L9′A + A75D/F133W, 30 s applications of ACh 0.5 to 50 mM, then 5 mM cysteamine) was “robust peak current; also recorded: robust activation”. The “Activation Hill coefficient” value ([9]; L240A (L9′A) + A75D/F133W, cysteamine as agonist) was 3.7 ± 0.3 and the EC50 ([9]; L240A (L9′A) + A75D/F133W, cysteamine as agonist, read-out: Activation EC50) was 4.3 ± 0.6 mM.
